Source: patent US9457033B2, “Steroid alkaloids and uses thereof as antimicrobial agents against electron transport-deficient microbes and as potentiators for antimicrobial agents against pathogenic bacteria” (priority 2011, dated 2016)

What was measured:
[1] = test system: S. aureus ATCC BAA-41; experiment: MIC, microdilution in CAMHB 24 h; assay type: cell-based, Staphylococcus aureus
[2] = test system: S. aureus MRSA COL; experiment: MIC, microdilution in CAMHB 24 h; assay type: cell-based, Staphylococcus aureus; details: MRSA COL
[3] = test system: S. aureus CF9A-L; experiment: MIC, microdilution in CAMHB 24 h; assay type: cell-based, Staphylococcus aureus; details: CF9A-L
[4] = test system: S. aureus CF4B-L; experiment: MIC, microdilution in CAMHB 24 h; assay type: cell-based, Staphylococcus aureus; details: CF4B-L
[5] = test system: S. aureus Sa228c; experiment: MIC, microdilution in CAMHB 24 h; assay type: cell-based, Staphylococcus aureus; details: Sa228c, 8 μg/ml of tomatidine
[6] = test system: S. aureus Sa220c; experiment: MIC, microdilution in CAMHB 24 h; assay type: cell-based, Staphylococcus aureus; details: Sa220c
[7] = test system: S. aureus CF6B-L; experiment: MIC, microdilution in CAMHB 24 h; assay type: cell-based, Staphylococcus aureus; details: CF6B-L
[8] = test system: S. aureus CF8E-L; experiment: MIC, microdilution in CAMHB 24 h; assay type: cell-based, Staphylococcus aureus; details: CF8E-L
[9] = test system: S. aureus N315; experiment: microbe, parasite or virus in culture; assay type: cell-based, Staphylococcus aureus
[10] = test system: S. aureus ATCC 29213; experiment: Time-kill experiments, aminoglycoside alone or with tomatidine (FIGS. 8-10)
[11] = test system: S. aureus Newbould; experiment: MIC, microdilution in CAMHB 24 h; assay type: cell-based, Staphylococcus aureus; details: Newbould
[12] = test system: S. aureus CF1A-L; experiment: MIC, microdilution in CAMHB 24 h; assay type: cell-based, Staphylococcus aureus; details: CF1A-L
[13] = test system: S. aureus ATCC 29213; experiment: Checkerboard assay, aminoglycoside and tomatidine; assay type: cell-based, Staphylococcus aureus; details: for Aminoglycoside MIC: checkerboard
[14] = test system: S. aureus ATCC 43300; experiment: MIC, microdilution in CAMHB 24 h; assay type: cell-based, Staphylococcus aureus; details: ATCC 43300
[15] = test system: S. aureus CF07-L; experiment: MIC, microdilution in CAMHB 24 h; assay type: cell-based, Staphylococcus aureus; details: CF07-L
[16] = test system: S. aureus ATCC 29213; experiment: MIC, microdilution in CAMHB 24 h, with or without tomatidine/compound; assay type: cell-based, Staphylococcus aureus; details: for MIC −TO: absence of tomatidine
[17] = test system: S. aureus CF35A-L; experiment: MIC, microdilution in CAMHB 24 h; assay type: cell-based, Staphylococcus aureus; details: CF35A-L
[18] = test system: S. aureus CF2A-L; experiment: MIC, microdilution in CAMHB 24 h; assay type: cell-based; details: CF2A-L
[19] = test system: S. aureus SHY97-3906; experiment: MIC, microdilution in CAMHB 24 h; assay type: cell-based, Staphylococcus aureus
[20] = ATCC 29123, 8 μg/ml of tomatidine
[21] = SHY-3906, 8 μg/ml of tomatidine

Substance: gentamicin
- MIC +TO ([1]; ATCC BAA-41, ant(4′)-Ia, 8 μg/ml of tomatidine): 0.12 to 0.25 mg/L
- MIC −TO ([1]; ATCC BAA-41, ant(4′)-Ia, absence of tomatidine): 0.5 mg/L
- Fold (−TO/+TO) ([1]; ATCC BAA-41, 8 μg/ml of tomatidine): 2-4 fold
- MIC ([1]; ATCC BAA-41, Human (HA), MRSA): 0.5 mg/L
- Fold (−TO/+TO) ([2]; 8 μg/ml of tomatidine): 8-16 fold
- MIC +TO ([2]; 8 μg/ml of tomatidine): 0.06 mg/L
- MIC ([2]; Human (SSTI)): 0.5 to 1 mg/L
- MIC −TO ([2]; absence of tomatidine): 0.5 to 1 mg/L
- MIC +TO ([3]; ant(4′)-Ia, 8 μg/ml of tomatidine): 0.06 to 0.12 mg/L
- MIC −TO ([3]; ant(4′)-Ia, absence of tomatidine): 0.5 to 1 mg/L
- Fold (−TO/+TO) ([3]; 8 μg/ml of tomatidine): 4-8 fold
- MIC ([3]; Human (CF lungs), MRSA): 0.5 to 1 mg/L
- Fold (−TO/+TO) ([4]; 8 μg/ml of tomatidine): 4-8 fold
- MIC +TO ([4]; 8 μg/ml of tomatidine): 0.06 to 0.12 mg/L
- MIC ([4]; Human (CF lungs)): 0.5 mg/L
- MIC −TO ([4]; absence of tomatidine): 0.5 mg/L
- MIC +TO ([5]; aac(6′)-aph(2″), ant(4′)-Ia): 8 to 16 mg/L
- Fold (−TO/+TO) [5]: 8 fold
- Fold (−TO/+TO) ([6]; 8 μg/ml of tomatidine): 4-8 fold
- MIC +TO ([6]; 8 μg/ml of tomatidine): 0.06 to 0.12 mg/L
- MIC ([6]; Human (SSTI), MRSA): 0.5 mg/L
- MIC −TO ([6]; absence of tomatidine): 0.5 mg/L
- MIC +TO ([7]; aac(6′)-aph(2″), 8 μg/ml of tomatidine): 16 to 32 mg/L
- MIC −TO ([7]; aac(6′)-aph(2″), absence of tomatidine): 128 to 256 mg/L
- Fold (−TO/+TO) ([7]; 8 μg/ml of tomatidine): 4-8 fold
- MIC ([7]; Human (CF lungs)): 128-256 (R) μg/ml
- Fold (−TO/+TO) ([8]; 8 μg/ml of tomatidine): 2-4 fold
- MIC +TO ([8]; 8 μg/ml of tomatidine): 0.25 to 0.5 mg/L
- MIC ([8]; Human (CF lungs)): 1 mg/L
- MIC −TO ([8]; absence of tomatidine): 1 mg/L
- MIC +TO ([9]; N315, ant(4′)-Ia, 8 μg/ml of tomatidine): 0.12 mg/L
- MIC −TO ([9]; N315, ant(4′)-Ia, absence of tomatidine): 1 mg/L
- Fold (−TO/+TO) ([9]; N315, 8 μg/ml of tomatidine): 8 fold
- MIC ([9]; N315, Human (HA), MRSA): 1 mg/L
- time-kill activity alone ([10]; alone at ≧1×MIC (1 μg/ml), regrowth observed within 24 h, FIG. 9): bactericidal
- time-kill activity of combination ([10]; gentamicin 0.06 μg/ml combined with tomatidine 8, FIG. 8): strong bactericidal activity
- MIC +TO ([11]; 8 μg/ml of tomatidine): 0.06 mg/L
- MIC ([11]; Cow (mastitis)): 0.5 to 1 mg/L
- MIC −TO ([11]; absence of tomatidine): 0.5 to 1 mg/L
- Fold (−TO/+TO) ([12]; 8 μg/ml of tomatidine): 4-8 fold
- MIC +TO ([12]; 8 μg/ml of tomatidine): 0.12 mg/L
- MIC ([12]; Human (CF lungs)): 0.5 to 1 mg/L
- MIC −TO ([12]; absence of tomatidine): 0.5 to 1 mg/L
- FIC index ([13]; aminoglycoside with tomatidine, tomatidine MIC considered 32 μg/ml, values overestimated): ≦0.116
- Aminoglycoside MIC ([13]; tomatidine 0 μg/ml): 0.5 to 1 mg/L
- Aminoglycoside MIC ([13]; tomatidine 0.06 μg/ml): 0.25 mg/L
- Aminoglycoside MIC ([13]; tomatidine 0.12 μg/ml): 0.06 to 0.25 mg/L
- Aminoglycoside MIC ([13]; tomatidine 0.25 μg/ml): 0.06 mg/L
- Aminoglycoside MIC ([13]; tomatidine 0.5 μg/ml): 0.06 mg/L
- Aminoglycoside MIC ([13]; tomatidine 1 μg/ml): 0.03 to 0.06 mg/L
- Aminoglycoside MIC ([13]; tomatidine 2 μg/ml): 0.06 to 0.12 mg/L
- Aminoglycoside MIC ([13]; tomatidine 4 μg/ml): 0.03 to 0.12 mg/L
- Aminoglycoside MIC ([13]; tomatidine 8 μg/ml): 0.03 to 0.06 mg/L
- Fold (−TO/+TO) ([14]; 8 μg/ml of tomatidine): 4 fold
- MIC +TO ([14]; 8 μg/ml of tomatidine): 16 to 32 mg/L
- MIC ([14]; Human (HA), MRSA): 64-128 (R) μg/ml
- MIC −TO ([14]; absence of tomatidine): 64 to 128 mg/L
- Fold (−TO/+TO) ([15]; 8 μg/ml of tomatidine): 4-8 fold
- MIC +TO ([15]; 8 μg/ml of tomatidine): 0.06 to 0.25 mg/L
- MIC ([15]; Human (CF lungs)): 0.5 to 1 mg/L
- MIC −TO ([15]; absence of tomatidine): 0.5 to 1 mg/L
- Fold (−TO/+TO) [16, 20]: 8-32 fold
- MIC +TO [16, 20]: 0.03 to 0.06 mg/L
- MIC −TO ([16]; ATCC 29123): 0.5 to 1 µg/mL
- MIC ([16]; ATCC 29213, Human (SSTI)): 0.5 to 1 mg/L
- MIC −TO ([16]; ATCC 29213): 0.5-1^ μg/ml
- MIC +TO ([16]; ATCC 29213, presence of tomatidine at 8 μg/ml): 0.03 to 0.06 mg/L
- Fold (−TO/+TO) ([16]; ATCC 29213, tomatidine at 8 μg/ml): 8-32 fold
- Fold (−TO/+TO) ([17]; 8 μg/ml of tomatidine): 8 fold
- MIC +TO ([17]; 8 μg/ml of tomatidine): 0.06 to 0.12 mg/L
- MIC ([17]; Human (CF lungs), MRSA): 0.5 to 1 mg/L
- MIC −TO ([17]; absence of tomatidine): 0.5 to 1 mg/L
- Fold (−TO/+TO) ([18]; 8 μg/ml of tomatidine): 4-8 fold
- MIC +TO ([18]; 8 μg/ml of tomatidine): 0.12 to 0.25 mg/L
- MIC ([18]; Human (CF lungs)): 1 mg/L
- MIC −TO ([18]; absence of tomatidine): 1 mg/L
- MIC ([19]; SHY97-3906, Cow (mastitis)): 0.25 mg/L
- Fold (−TO/+TO) [19, 21]: 4-8 fold
- MIC +TO [19, 21]: 0.03 to 0.06 mg/L
- MIC −TO ([19]; SHY-3906, absence of tomatidine): 0.25 mg/L
